Assay results taken from publication PMC3871618 (PLoS ONE, 2013).

Assays:
ABCB1 transporter [1] = biological target: T1, ABCB1 transporter (Homo sapiens, UniProt P08183); experiment: HOE (Hoechst 33342) accumulation in MDCKII-ABCB1 cells; type: cell-based; conditions: 8 µM HOE, end-point fluorescence at 30 min, 50% of each compound's own maximum inhibitory activity, read-out: IC50, inhibition of ABCB1-mediated efflux of HOE
T1 construct: expressed in transfected cells; host or cells: MDCKII (canine kidney) cells transduced with human ABCB1, from Prof; Piet Borst and Dr. Alfred Schinkel (The Netherlands Cancer Institute)
Experimental: (§1) To investigate the inhibitory activity of CDKi on ABCB1, the intracellular accumulation of HOE, a fluorescent ABCB1 substrate, was examined in both MDCKII-ABCB1 and MDCKII parent cell lines in the presence and absence of the tested compounds. The reduction in fluorescence intensity in ABCB1-transduced cells indicates the efflux activity of the ABCB1 transporter, its inhibition increases HOE accumulation and thus the intracellular fluorescence.
(§2) The assay was conducted as previously described and optimized for application in ABCB1-expressing cells. Briefly, MDCKII-ABCB1 and MDCKII parent cells were seeded at 5×10^4 cells per well on a 96-well culture plate and used for accumulation experiments after 24 h cultivation. The medium was removed and cells were washed twice with prewarmed phosphate buffered saline (PBS) at pH 7.4.

ABCB1 [2] = biological target: T2, ABCB1 (Homo sapiens, UniProt P08183); experiment: ABCB1-ATPase inhibition assay (verapamil-stimulated), Sf9 membranes; type: biochemical; parameters: purchased Solvo Biotechnology (Szeged, Hungary); host or cells: Sf9 insect cell membranes; conditions: 140 nM to 300 µM
Experimental: (§3) The drug efflux function of ABCB1 is linked to hydrolysis of ATP by ATPase, which is stimulated in the presence of ABCB1 substrates. In the activation assay, transported substrates can stimulate baseline vanadate-sensitive ATPase activity, whereas in the inhibition assay, which is carried out in the presence of a known activator of the transporter, inhibitors may reduce the maximal vanadate-sensitive ATPase activity. ATPase activity was measured by assessing the amount of phosphate liberated from ATP by the ABCB1 transporter using the […] ATPase kit for ABCB1 according to the manufacturer’s instructions. For this purpose, Sf9 cell membranes (4 µg protein per well) were mixed with each of the test compounds (singly) in solutions with concentrations ranging from 140 nM to 300 µM, then incubated at 37°C for 10 min in the presence or absence of 1.2 mM sodium orthovanadate. The reaction was started by adding 10 mM ATP solution (magnesium salt) to the reaction mixture, stopped 10 min later, and the absorbance at 590 nm was measured after a further 30 min incubation (GeniosPlus apparatus; Tecan, Männedorf, Switzerland). The ATPase activity in each sample was determined as the difference in liberated amounts of phosphate measured in the presence and absence of 1.2 mM sodium orthovanadate. Phosphate standards were prepared in each plate and verapamil served as a positive control for ABCB1 stimulation. The results are expressed as vanadate-sensitive ATPase activities.

ABCB1 [3] = biological target: T2, ABCB1; experiment: ABCB1-ATPase activation assay (baseline), Sf9 membranes; type: biochemical; parameters: purchased Solvo Biotechnology (Szeged, Hungary); host or cells: Sf9 insect cell membranes; conditions: for ABCB1 substrate classification: from ATPase activity in Sf9 membranes overexpressing human ABCB1
Experimental: as §3

ABCB1 [4] = biological target: T2, ABCB1; experiment: HOE (Hoechst 33342) accumulation in MDCKII-ABCB1 cells; type: cell-based; parameters: expressed in transfected cells; host or cells: MDCKII (canine kidney) cells transduced with human ABCB1, from Prof; Piet Borst and Dr. Alfred Schinkel (The Netherlands Cancer Institute); conditions: human, probe Hoechst 33342 (HOE), 8 µM, CDKi applied at their respective IC50 concentrations, % as strongly as LY, read-out: Inhibition of HOE efflux relative to LY
Experimental: as §1, §2

ABCB1 transporter [5] = biological target: T1, ABCB1 transporter; experiment: DNR accumulation in MDCKII-ABCB1 cells (flow cytometry), normalized to parental MDCKII; type: cell-based; conditions: 20 µM CDKi, 2 µM DNR
Experimental: Briefly, MDCKII-ABCB1 and MDCKII parent cells were seeded at 1.5×10^5 cells per well on a 12-well plate 24 h before the experiment. The medium was removed and the cells were washed with prewarmed PBS. The cells were then preincubated in Opti-MEM, with or without CDKi or LY at 37°C in 5% CO2 for 30 min. […] Accumulation was stopped by cooling the samples on ice, removing the medium and washing twice with ice-cold PBS. The cells were then detached from the plates with 10× trypsin-EDTA, resuspended in PBS with 2% FBS and transferred to Eppendorf tubes, which were placed on ice until analysis. […] The median fluorescence (MF) intensity of 10,000 measured cells was used to compare the fluorescence resulting from each of the treatments. […] The MF intensity of untreated cells was subtracted from fluorescence values obtained for all the measured samples.
To quantify the inhibitory effect of each tested compound on the ABCB1 transporter in the MDCKII-ABCB1 cell line, the ratio between the MF intensity with or without inhibitor was calculated and normalized to the effect in the parental MDCKII cell line according to the following equation [30]: [drawing 1]

MDCKII parent cells = experiment: XTT cytotoxicity, CDKi + DNR combination (Chou-Talalay); type: cell-based; conditions: 72 h; for DRI at Fa 0.5, drug II (CDKi) / DRI at Fa 0.75, drug II (CDKi) / DRI at Fa 0.9, drug II (CDKi): CDKi combined with DNR at constant ratio; for Fa above which combination with DNR is synergistic: constant ratio
Experimental: (§4) 1×10^4 MDCKII-ABCB1, 1×10^4 MDCKII parent, 2×10^4 HCT-8, or 2×10^4 HepG2 cells were grown in 96-well culture plates and incubated for 24 h. Individual CDKi diluted with growth medium were added to the exponentially growing cells and the resulting mixtures were incubated for 72 h at 37°C, 5% CO2. Cytotoxicity was then assessed using the XTT assay as follows: cells were incubated with 0.167 mg/mL XTT and 4 µM PMS in Opti-MEM for 2 h. The absorbance of the soluble formazan released was measured at 470 nm on a microplate reader (Tecan, Männedorf, Switzerland).
(§5) The combination index (CI) method of Chou-Talalay, based on the median-effect equation, was used to calculate combined drug effects. This approach offers quantitative definitions for additive, synergistic and antagonistic effects (CI values of 0.9–1.1, <0.9, and >1.1, respectively). Combination experiments were performed in a constant-ratio experimental design as recommended for the most efficient data analysis, and the generated data were used to quantify dose-reduction indices (DRI) for pairs of the tested drugs. DRI represents the fold-change of a focal effect when individual agents are used simultaneously relative to their separate effects, and their activity is synergistic if DRI > 1. […] The data acquired from these drug combination experiments were analyzed using CompuSyn ver. 3.0.1 software (ComboSyn Inc., Paramus, NJ, USA).

MDCKII-ABCB1 cells = experiment: as above; type: cell-based; conditions: MDCKII-ABCB1, 72 h; for Combination index (CI) category, combination with DNR: constant ratio; for DRI at Fa 0.5, drug II (CDKi) / DRI at Fa 0.75, drug II (CDKi) / DRI at Fa 0.9, drug II (CDKi): CDKi combined with DNR at constant ratio
Experimental: as §4, §5

HCT-8 cells = experiment: as above; conditions: HCT-8, 72 h; for Fa at which combination with DNR shows synergistic cytotoxic effects: constant ratio
Experimental: as §4, §5

HepG2 cells = experiment: as above; type: cell-based, human; conditions: HepG2, 72 h; for Fa values for synergism of combination with DNR: constant ratio
Experimental: as §4, §5

ABCG2 = test system: ABCG2; parameters: method as in PMID 22173067, PMID 24116053; conditions: in vitro and in situ; cited from earlier work
[6] = CDKi combined with DNR at constant ratio

T1 sequence (P08183 whole entry): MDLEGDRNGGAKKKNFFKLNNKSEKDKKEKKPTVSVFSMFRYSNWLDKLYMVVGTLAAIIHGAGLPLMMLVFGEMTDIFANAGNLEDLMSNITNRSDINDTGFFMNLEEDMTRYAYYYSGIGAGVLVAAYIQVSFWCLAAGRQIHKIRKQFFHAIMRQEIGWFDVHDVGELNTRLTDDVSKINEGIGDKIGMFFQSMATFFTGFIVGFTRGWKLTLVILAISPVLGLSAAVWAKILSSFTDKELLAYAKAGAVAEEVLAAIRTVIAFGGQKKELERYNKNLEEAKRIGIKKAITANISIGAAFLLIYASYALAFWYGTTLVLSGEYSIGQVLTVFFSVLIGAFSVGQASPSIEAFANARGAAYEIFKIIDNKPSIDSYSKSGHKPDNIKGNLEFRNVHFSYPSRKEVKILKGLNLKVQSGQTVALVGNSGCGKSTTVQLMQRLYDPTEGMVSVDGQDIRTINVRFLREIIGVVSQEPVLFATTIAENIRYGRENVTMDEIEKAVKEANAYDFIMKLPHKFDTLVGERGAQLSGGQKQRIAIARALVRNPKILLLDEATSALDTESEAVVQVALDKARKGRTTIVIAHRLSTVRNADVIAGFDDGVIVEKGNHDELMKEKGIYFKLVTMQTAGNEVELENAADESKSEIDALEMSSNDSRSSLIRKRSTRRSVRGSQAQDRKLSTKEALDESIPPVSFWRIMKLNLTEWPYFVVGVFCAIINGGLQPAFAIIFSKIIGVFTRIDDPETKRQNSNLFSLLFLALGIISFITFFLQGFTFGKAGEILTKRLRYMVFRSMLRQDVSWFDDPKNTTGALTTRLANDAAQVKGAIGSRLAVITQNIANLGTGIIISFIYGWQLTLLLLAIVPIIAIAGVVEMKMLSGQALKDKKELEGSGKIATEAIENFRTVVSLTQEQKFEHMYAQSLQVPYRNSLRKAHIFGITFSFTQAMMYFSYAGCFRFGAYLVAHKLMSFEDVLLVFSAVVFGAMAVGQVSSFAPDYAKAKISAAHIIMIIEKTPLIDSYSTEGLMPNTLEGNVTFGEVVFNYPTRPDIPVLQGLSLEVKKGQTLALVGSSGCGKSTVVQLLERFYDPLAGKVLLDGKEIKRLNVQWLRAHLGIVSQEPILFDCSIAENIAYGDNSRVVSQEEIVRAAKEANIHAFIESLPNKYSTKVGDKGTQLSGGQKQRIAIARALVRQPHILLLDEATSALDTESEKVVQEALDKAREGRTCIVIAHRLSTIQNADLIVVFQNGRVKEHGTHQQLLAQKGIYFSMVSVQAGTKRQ
T2 sequence (P08183 whole entry): as above

SMILES | IC50 (ABCB1 transporter [1]) [µM] | Effect on verapamil-stimulated vanadate-sensitive ATPase activity of ABCB1 (ABCB1 [2]) | ABCB1 substrate classification (ABCB1 [3]) | inhibition at 30 min (ABCB1 [4]) [%] | ABCB1 inhibition (DNR efflux) (ABCB1 transporter [5]) | DRI at Fa 0.5, drug II (CDKi) (MDCKII parent cells) | DRI at Fa 0.75, drug II (CDKi) (MDCKII parent cells) | DRI at Fa 0.9, drug II (CDKi) (MDCKII parent cells) | Fa above which combination with DNR is synergistic (MDCKII parent cells) | Combination index (CI) category, combination with DNR (MDCKII-ABCB1 cells) | DRI at Fa 0.5, drug II (CDKi) (MDCKII-ABCB1 cells) | DRI at Fa 0.75, drug II (CDKi) (MDCKII-ABCB1 cells) | DRI at Fa 0.9, drug II (CDKi) (MDCKII-ABCB1 cells) | Fa at which combination with DNR shows synergistic cytotoxic effects (HCT-8 cells) | DRI at Fa 0.75, drug II (CDKi) (HCT-8 cells; [6]) | DRI at Fa 0.9, drug II (CDKi) (HCT-8 cells; [6]) | Fa values for synergism of combination with DNR (HepG2 cells) | DRI at Fa 0.9, drug II (CDKi) (HepG2 cells; [6]) | ABCG2 inhibition (ABCG2) | further results
CN1CC[C@H](c2c(O)cc(O)c3c(=O)cc(-c4ccccc4Cl)oc23)[C@H](O)C1 [flavopiridol] | 16.9 | only slightly reduced it at the highest tested concentration | non-substrates of ABCB1 | 31 |  |  |  |  |  |  |  |  |  |  |  |  |  |  |  | 
CC[C@H](CO)Nc1nc(NCc2ccccc2O)c2ncn(C(C)C)c2n1 [olomoucine II] | 6.4 | considerably and dose-dependently reduced | ABCB1 substrate and inhibitor | 48 | significant (P<0.05) ABCB1 inhibition | 2.51±0.08 | 2.63±0.05 | 2.75±0.02 | exceeded 0.4 | synergistic category of drug combination effects across almost the whole fraction of cells affected (Fa) range | 2.83±0.27 | 2.84±0.19 | 2.86±0.10 | > 0.1 | 2.98±0.06 | 2.92±0.05 | 0.75 | 2.38±0.04 | can inhibit ABCG2 in vitro and in situ | DRI at Fa 0.5, drug II (CDKi) (HCT-8 cells; [6]): 3.04±0.13; DRI at Fa 0.75, drug II (CDKi) (HepG2 cells; [6]): 2.08±0.03; Effect on baseline vanadate-sensitive ATPase activity of ABCB1 (ABCB1 [3]; activation assay, 140 nM to 300 µM): increased the baseline vanadate-sensitive ATPase activity
CC(C)[C@H](CO)Nc1nc(Nc2cccc(Cl)c2)c2ncn(C(C)C)c2n1 [purvalanol A] | 12.1 | considerably and dose-dependently reduced | non-substrates of ABCB1 | 86 | significant (P<0.05) ABCB1 inhibition | 2.41±0.03 | 2.40±0.04 | 2.39±0.06 | exceeded 0.4 | synergistic category of drug combination effects across almost the whole fraction of cells affected (Fa) range | 4.03±0.08 | 3.73±0.06 | 3.45±0.04 | > 0.75 | 1.77±0.01 | 1.68±0.05 | 0.9 | 1.68±0.03 | can inhibit ABCG2 in vitro and in situ | 
